From ChEMBL document CHEMBL1201862, “PubChem BioAssay data set” (2004)
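Following 48 hours of exposure in 96-well plates, responses at five concentrations were used to interpolate endpoints linearly. The concentration for 50% growth inhibition is given as GI50.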 Active and inactive are the calls of the source. No stated cut-off is given here; in the data, active = GI50 up to about 1.1 µM and inactive = higher.

What was measured:
Experiment in all cases: inhibition of tumour cell growth, NCI panel, 48 h
SK-MEL-28 = tested on: SK-MEL-28
OVCAR-4 = tested on: OVCAR-4
SR = tested on: SR
NCI-H522 = tested on: NCI-H522
A549 = tested on: A549
SN12C = tested on: SN12C
Malme-3M = tested on: Malme-3M
NCI-H23 = tested on: NCI-H23
OVCAR-5 = tested on: OVCAR-5
SNB-19 = tested on: SNB-19
HCT-15 = tested on: HCT-15
U-251 = tested on: U-251
CCRF-CEM = tested on: CCRF-CEM
OVCAR-3 = tested on: OVCAR-3
HL-60 = tested on: HL-60
SK-MEL-5 = tested on: SK-MEL-5
HT-29 = tested on: HT-29
ACHN = tested on: ACHN
K562 = tested on: K562
MOLT-4 = tested on: MOLT-4

Compound | GI50 (SK-MEL-28) | GI50 (OVCAR-4) | GI50 (SR) | GI50 (NCI-H522) | GI50 (A549) | GI50 (SN12C) | GI50 (Malme-3M) | GI50 (NCI-H23) | GI50 (OVCAR-5) | GI50 (SNB-19) | GI50 (HCT-15) [µM] | GI50 (U-251) | GI50 (CCRF-CEM) | GI50 (OVCAR-3) | GI50 (HL-60) | GI50 (SK-MEL-5) | GI50 (HT-29) | GI50 (ACHN) | GI50 (K562) | GI50 (MOLT-4)
Cc1nc2ccccc2n1C(=O)c1c(F)c(F)c(F)c(F)c1F | 29.4 µM (inactive) | 14.5 µM (inactive) | 2.34 µM (inactive) | 3.01 µM (inactive) | 30.4 µM (inactive) | 6.01 µM (inactive) | 19.8 µM (inactive) | 17 µM (inactive) | 19 µM (inactive) | 29.5 µM (inactive) | 11.2 | 19 µM (inactive) | 5.12 µM (inactive) | 24.3 µM (inactive) | 4.49 µM (inactive) | 12.1 µM (inactive) | 4.98 µM (inactive) | 22.9 µM (inactive) | 5.48 µM (inactive) | 4.07 µM (inactive)
N#C/N=N/c1cc(Cl)c(/N=N/C#N)cc1Cl | > 100 µM (inactive) | 47 µM (inactive) | 34.8 µM (inactive) | 51.3 µM (inactive) | > 100 µM (inactive) | > 100 µM (inactive) | > 100 µM (inactive) | > 100 µM (inactive) | > 100 µM (inactive) | > 100 µM (inactive) | > 100 | > 100 µM (inactive) | 19.8 µM (inactive) | > 100 µM (inactive) | 34.7 µM (inactive) | > 100 µM (inactive) | > 100 µM (inactive) | > 100 µM (inactive) | 27.1 µM (inactive) | 40.9 µM (inactive)
